Results from publication PMC12440775 (Frontiers in Pharmacology, 2025).
“Also recorded” adds a separate entry of the source. Marks after values point to notes of the source that are not given here.

Columns and labels:
CYP2C9 = settings: therapeutic dose of 120 mg QD; cited from earlier work
HCV = system: HCV; set-up: method as in Ferenci et al., 2015; settings: in combination with PegIFN and RBV, treatment-naïve patients; ref Ferenci et al., 2015; cited from earlier work
[1] = Safety and tolerability, single ascending dose (Part 1); assay type: in vivo, human; settings: for Abdominal pain / Diarrhea / Dizziness / Flatulence / Gastrointestinal disorders / Headache / Hepatobiliary disorders / Hyperbilirubinemia / Jaundice / Nausea / Nervous system disorders / Retching / Subjects with any AE / Vomiting: 6 subjects
Procedure: Six volunteers received the active drug at each dose level dissolved in a polyethylene glycol (PEG)/tromethamine (TRIS)/meglumine solution, and two received a placebo. One dose level was tested within each group. Subject groups were dosed and evaluated sequentially, beginning with the lowest-dose group and proceeding stepwise to the highest-dose group. The next higher dose was administered only if no safety concerns arose during treatment of the preceding group.
Safety was assessed throughout the study by monitoring changes in clinical laboratory parameters (e.g., serum biochemistry, hematology, and urinalysis), 12-lead electrocardiograms, or vital signs (blood pressure, pulse rate, and temperature measurements); monitoring for occurrence of AEs); and carrying out physical examinations.

## C=C[C@@H]1C[C@]1(NC(=O)[C@@H]1C[C@@H](Oc2cc(-c3csc(NC(=O)C(C)C)n3)nc3c(Br)c(OC)ccc23)CN1C(=O)[C@@H](NC(=O)OC1CCCC1)C(C)(C)C)C(=O)O [FDV, Faldaprevir]
CYP2C9
  Effect on CYP2C9: inhibitory effects
HCV
  Sustained virologic response (SVR) rate: up to 84%
[1]; 120 mg, Part 1
  Subjects with increases in total bilirubin: two subjects
[1]; 240 mg, Part 1
  Subjects with increases in total bilirubin: three subjects
[1]; 480 mg, Part 1
  Subjects with increases in total bilirubin: five subjects
[1]; 800 mg, Part 1
  Subjects with increases in total bilirubin: six subjects
[1]; 1,200 mg, Part 1
  Subjects with increases in total bilirubin: six subjects
[1]; 480-mg group, Part 1
  Subjects with marked hyperbilirubinemia / indirect (unconjugated) bilirubin >3.0 mg/dL: two subjects
[1]; 1,200-mg group, Part 1
  Subjects with marked hyperbilirubinemia / indirect (unconjugated) bilirubin >3.0 mg/dL: five subjects
[1]; FDV 4 mg
  Abdominal pain: 0 n (%)
  Diarrhea: 0 n (%)
  Dizziness: 0 n (%)
  Flatulence: 0 n (%)
  Gastrointestinal disorders: 1 (16.7) n (%)
  Headache: 1 (16.7) n (%)
  Hepatobiliary disorders: 0 n (%)
  Hyperbilirubinemia: 0 n (%)
  Jaundice: 0 n (%)
  Nausea: 1 (16.7) n (%)
  Nervous system disorders: 1 (16.7) n (%)
  Retching: 0 n (%)
  Subjects with any AE: 1 (16.7) n (%)
  Vomiting: 0 n (%)
[1]; FDV 16 mg
  Abdominal pain: 0 n (%)
  Diarrhea: 0 n (%)
  Dizziness: 0 n (%)
  Flatulence: 0 n (%)
  Gastrointestinal disorders: 0 n (%)
  Headache: 0 n (%)
  Hepatobiliary disorders: 0 n (%)
  Hyperbilirubinemia: 0 n (%)
  Jaundice: 0 n (%)
  Nausea: 0 n (%)
  Nervous system disorders: 0 n (%)
  Retching: 0 n (%)
  Subjects with any AE: 0 n (%)
  Vomiting: 0 n (%)
[1]; FDV 48 mg
  Abdominal pain: 0 n (%)
  Diarrhea: 0 n (%)
  Dizziness: 1 (16.7) n (%)
  Flatulence: 0 n (%)
  Gastrointestinal disorders: 0 n (%)
  Headache: 1 (16.7) n (%)
  Hepatobiliary disorders: 0 n (%)
  Hyperbilirubinemia: 0 n (%)
  Jaundice: 0 n (%)
  Nausea: 0 n (%)
  Nervous system disorders: 1 (16.7) n (%)
  Retching: 0 n (%)
  Subjects with any AE: 3 (50.0) n (%)
  Vomiting: 0 n (%)
[1]; FDV 120 mg
  Abdominal pain: 0 n (%)
  Diarrhea: 1 (16.7) n (%)
  Dizziness: 0 n (%)
  Flatulence: 0 n (%)
  Gastrointestinal disorders: 1 (16.7) n (%)
  Headache: 0 n (%)
  Hepatobiliary disorders: 0 n (%)
  Hyperbilirubinemia: 0 n (%)
  Jaundice: 0 n (%)
  Nausea: 0 n (%)
  Nervous system disorders: 0 n (%)
  Retching: 0 n (%)
  Subjects with any AE: 1 (16.7) n (%)
  Vomiting: 0 n (%)
[1]; FDV 240 mg
  Abdominal pain: 1 (16.7) n (%)
  Diarrhea: 0 n (%)
  Dizziness: 0 n (%)
  Flatulence: 0 n (%)
  Gastrointestinal disorders: 2 (33.3) n (%)
  Headache: 2 (33.3) n (%)
  Hepatobiliary disorders: 0 n (%)
  Hyperbilirubinemia: 0 n (%)
  Jaundice: 0 n (%)
  Nausea: 1 (16.7) n (%)
  Nervous system disorders: 2 (33.3) n (%)
  Retching: 0 n (%)
  Subjects with any AE: 5 (83.3) n (%)
  Vomiting: 1 (16.7) n (%)
[1]; FDV 480 mg
  Abdominal pain: 0 n (%)
  Diarrhea: 3 (50.0) n (%)
  Dizziness: 1 (16.7) n (%)
  Flatulence: 1 (16.7) n (%)
  Gastrointestinal disorders: 4 (66.7) n (%)
  Headache: 3 (50.0) n (%)
  Hepatobiliary disorders: 2 (33.3) n (%)
  Hyperbilirubinemia: 2 (33.3) n (%)
  Jaundice: 0 n (%)
  Nausea: 2 (33.3) n (%)
  Nervous system disorders: 4 (66.7) n (%)
  Retching: 2 (33.3) n (%)
  Subjects with any AE: 6 (100) n (%)
  Vomiting: 1 (16.7) n (%)
[1]; FDV 800 mg
  Abdominal pain: 1 (16.7) n (%)
  Diarrhea: 4 (66.7) n (%)
  Dizziness: 1 (16.7) n (%)
  Flatulence: 0 n (%)
  Gastrointestinal disorders: 4 (66.7) n (%)
  Headache: 1 (16.7) n (%)
  Hepatobiliary disorders: 0 n (%)
  Hyperbilirubinemia: 0 n (%)
  Jaundice: 0 n (%)
  Nausea: 1 (16.7) n (%)
  Nervous system disorders: 1 (16.7) n (%)
  Retching: 0 n (%)
  Subjects with any AE: 4 (66.7) n (%)
  Vomiting: 0 n (%)
[1]; FDV 1,200 mg
  Abdominal pain: 0 n (%)
  Diarrhea: 3 (50.0) n (%)
  Dizziness: 1 (16.7) n (%)
  Flatulence: 1 (16.7) n (%)
  Gastrointestinal disorders: 4 (66.7) n (%)
  Headache: 0 n (%)
  Hepatobiliary disorders: 5 (83.3) n (%)
  Hyperbilirubinemia: 5 (83.3) n (%)
  Nausea: 1 (16.7) n (%)
  Nervous system disorders: 1 (16.7) n (%)
  Retching: 1 (16.7) n (%)
  Subjects with any AE: 6 (100) n (%)
  Vomiting: 0 n (%)
[1]; FDV 1,200 mg, mild transient jaundice of the skin and sclera
  Jaundice: 1 (16.7) ^b n (%)
[1]; FDV 240-mg dose group
  Severe vomiting: one subject
[1]; Part 1, all FDV dose groups
  Subjects with an AE after treatment with FDV: 26 subjects out of 48
[1]; Part 1, receiving FDV
  Subjects with AEs with a possible relationship to the study drug according to the investigator: 19 subjects
[1]; all dose groups, Part 1
  Subjects with marked hyperbilirubinemia (>3.0 mg/dL): seven subjects
[1]; during the study (both parts)
  Serious AEs: no serious AEs were reported; also recorded: No serious AEs occurred
[1]; oral solution, single doses 4–1,200 mg
  Tolerability: generally well tolerated
[1]; subjects with hyperbilirubinemia or elevated total bilirubin
  Changes in alanine transaminase, hemoglobin, or neutrophil count: no clinically relevant changes
[1]; whole study
  Changes in vital signs, ECGs, or medical examinations: No clinically relevant changes
[1]; whole study, groups not specified
  Subjects with slight elevations of direct bilirubin: 14 subjects
